{"source": "BindingDB's records for doi:10.1016/j.bmcl.2006.12.033", "about": "(F. Hoffmann-La Roche, 2007)", "key": {"[1]": {"target": "T1, Metabotropic glutamate receptor 5 (Homo sapiens, UniProt P41594)", "T1 sequence (P41594 whole entry)": "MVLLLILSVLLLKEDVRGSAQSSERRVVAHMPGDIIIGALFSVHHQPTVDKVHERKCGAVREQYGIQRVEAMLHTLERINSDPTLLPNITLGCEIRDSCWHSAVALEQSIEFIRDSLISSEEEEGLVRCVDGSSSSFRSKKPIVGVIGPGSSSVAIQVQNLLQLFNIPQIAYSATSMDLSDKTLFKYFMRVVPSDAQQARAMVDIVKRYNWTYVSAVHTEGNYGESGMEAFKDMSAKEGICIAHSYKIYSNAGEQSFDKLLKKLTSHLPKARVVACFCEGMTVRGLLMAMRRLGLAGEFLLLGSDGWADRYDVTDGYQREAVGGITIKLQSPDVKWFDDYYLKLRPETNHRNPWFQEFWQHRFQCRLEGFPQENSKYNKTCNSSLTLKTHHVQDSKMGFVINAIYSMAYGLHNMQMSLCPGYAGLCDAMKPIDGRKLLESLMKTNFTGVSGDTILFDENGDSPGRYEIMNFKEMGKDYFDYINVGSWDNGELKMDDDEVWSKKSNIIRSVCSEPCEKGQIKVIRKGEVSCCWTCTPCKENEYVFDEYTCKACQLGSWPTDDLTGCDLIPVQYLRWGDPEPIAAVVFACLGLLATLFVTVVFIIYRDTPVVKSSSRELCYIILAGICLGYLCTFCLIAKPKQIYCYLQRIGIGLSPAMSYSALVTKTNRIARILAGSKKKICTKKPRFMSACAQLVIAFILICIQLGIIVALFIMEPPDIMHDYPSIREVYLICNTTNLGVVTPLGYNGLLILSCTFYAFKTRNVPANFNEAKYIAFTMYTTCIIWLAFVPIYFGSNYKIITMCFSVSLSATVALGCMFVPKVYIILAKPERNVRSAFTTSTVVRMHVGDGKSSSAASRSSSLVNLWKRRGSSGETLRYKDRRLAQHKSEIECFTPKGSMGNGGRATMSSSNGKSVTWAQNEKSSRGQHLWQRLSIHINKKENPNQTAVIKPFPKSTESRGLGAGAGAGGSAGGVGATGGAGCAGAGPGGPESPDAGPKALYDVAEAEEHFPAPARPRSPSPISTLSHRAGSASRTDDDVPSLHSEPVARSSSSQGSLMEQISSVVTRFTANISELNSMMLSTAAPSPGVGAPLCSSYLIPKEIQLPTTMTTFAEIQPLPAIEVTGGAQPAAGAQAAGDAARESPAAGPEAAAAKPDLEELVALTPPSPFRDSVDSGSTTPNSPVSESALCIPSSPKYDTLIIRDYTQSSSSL", "assay": "Displacement of [3H]MPEP from mGlu5 receptor"}, "[2]": {"target": "T1, Metabotropic glutamate receptor 5", "assay": "Antagonist activity at mGluR5 by FLIPR"}}, "data": [{"compound": "Cn1cc(O)nc1NC(=O)Nc1cccnc1", "note": "[(E)-1-(1-methyl-4-oxoimidazolidin-2-ylidene)-3-(pyridin-3-yl)urea]", "values": [{"measurement": "IC50", "setting": "[1]", "result": "> 5", "unit": "µM"}, {"measurement": "IC50", "setting": "[2]", "result": "> 5", "unit": "µM"}]}, {"compound": "Cn1cc(O)nc1NC(=O)Nc1ccc(Cl)cc1", "note": "[(E)-1-(4-chlorophenyl)-3-(1-methyl-4-oxoimidazolidin-2-ylidene)urea]", "values": [{"measurement": "IC50", "setting": "[1]", "result": "> 5", "unit": "µM"}, {"measurement": "IC50", "setting": "[2]", "result": "> 5", "unit": "µM"}]}]}
